According to US9587205B2, “Activation of peroxygen bleach” (Warwick International Group Limited, priority 2012, dated 2017):

Test: Peracid (peracetic acid) release rate, iodometric titration
Assay type: physicochemical
Details: for Peracid Release (% th. max): time 5 mins, 20° C., 75 rpm, actual PAR/theoretical PAR
Procedure: The invention is illustrated by determining the rate of peracid release as a proportion of the maximum achievable based on acetyl groups available for reaction with perhydroxyl ion.
In this specification the method used to measure peracid generation is an iodometric titration carried out as follows: 25 g of a mixture of 85% by weight IEC A*base detergent, 10% sodium percarbonate and 5% activator, accurately weighed, is added to it deionised water at 20° C. in a beaker stirred by overhead stirrer at 75 rpm at t=0. After predetermined times from 2 mins, a 50 ml sample of the solution is added to a mixture of 15 ml glacial acetic acid and 5 ml of a 10% solution of potassium iodide at 0° C. and titrated against 0.05M sodium thiosulphate using a suitable indicator for iodine as quickly as possible. The theoretical amount of peracid released (PAR) is calculated as follows:
[formula] for TriAED the moles of peracid released is 1, for TAED it is 2.
The actual amount of peracid released (actual PAR) is calculated from the titre of thiosulphate and its molarity, based on the correlation of 2 moles thiosulphate to 1 mole of peracid. The results reported are of actual PAR/theoretical PAR for each time point.
Testing of peracetic acid release rate is carried out according to the standard test method described above.

Row | Peracid Release (% th. max) | peracid release as a proportion of the maximum achievable (within two minutes of being added to water at 20° C.) | Structure (SMILES)
1 | 92 | – | CC(=O)NCCN(C(C)=O)C(C)=O [Tri AED, N,N,N′-triacetylethylene diamine]
2 | 45 | less than 70% | CC(=O)N(CCN(C(C)=O)C(C)=O)C(C)=O [TAED, Tetra-acetylethylene diamine]
